{"source": "ChEMBL document CHEMBL5532638", "about": "“Current development of 1,2,3-triazole derived potential antimalarial scaffolds: Structure- activity relationship (SAR) and bioactive compounds” (Eur J Med Chem, 2023)", "data": [{"system": "Plasmodium falciparum", "assay": "Antiplasmodial activity against CQ-resistant Plasmodium falciparum K1 infected in human O+ RBCs assessed as parasite growth inhibition incubated for 72 hrs by ELISA", "format": "functional, organism-based", "conditions": "K1, 72 h", "units": {"IC50": "nM"}, "values": [{"smiles": "C=CCn1cc(COc2ccc(C3C(Oc4ccccc4)C(=O)N3c3ccc(C)cc3)cc2)nn1", "note": "(stereo not drawn)", "IC50": 850}, {"smiles": "Cc1ccc(C2C(Oc3ccccc3)C(=O)N2c2ccc(OCc3cn(Cc4ccccc4)nn3)cc2)cc1", "note": "(stereo not drawn)", "IC50": 850}, {"smiles": "O=C1C(Oc2ccccc2)C(c2ccc(OCc3cn(Cc4ccccc4)nn3)cc2)N1c1ccccc1", "note": "(stereo not drawn)", "IC50": 850}, {"smiles": "COc1cccc(C2C(Oc3ccccc3)C(=O)N2c2ccc(OCc3cn(Cc4ccccc4)nn3)cc2)c1", "note": "(stereo not drawn)", "IC50": 850}, {"smiles": "CCOC(=O)Cn1cc(COc2ccc(C3C(OC)C(=O)N3c3ccc(OCc4cn(CC(=O)OCC)nn4)cc3)cc2)nn1", "note": "(stereo not drawn)", "IC50": 850}, {"smiles": "O=C1C(Oc2ccccc2)C(c2ccc(OCc3cn(Cc4ccccc4)nn3)cc2)N1c1ccc(OCc2cn(Cc3ccccc3)nn2)cc1", "note": "(stereo not drawn)", "IC50": 970}, {"smiles": "Cc1ccc(N2C(=O)C(Oc3ccccc3)C2c2ccc(OCc3cn(Cc4ccccc4)nn3)cc2)cc1", "note": "(stereo not drawn)", "IC50": 850}, {"smiles": "C=CCn1cc(COc2ccc(C3C(Oc4ccccc4)C(=O)N3c3ccc(OCc4cn(CC=C)nn4)cc3)cc2)nn1", "note": "(stereo not drawn)", "IC50": 850}, {"smiles": "O=C1C(Oc2ccccc2)C(c2ccccc2)N1c1ccc(OCc2cn(Cc3ccccc3)nn2)cc1", "note": "(stereo not drawn)", "IC50": 850}, {"smiles": "C=CCn1cc(COc2ccc(C3C(Oc4ccccc4)C(=O)N3c3ccccc3)cc2)nn1", "note": "(stereo not drawn)", "IC50": 850}, {"smiles": "C=CCn1cc(COc2ccc(C3C(Oc4ccc(Cl)cc4Cl)C(=O)N3c3ccc(OCc4cn(CC=C)nn4)cc3)cc2)nn1", "note": "(stereo not drawn)", "IC50": 850}, {"smiles": "C=CCn1cc(COc2ccc(N3C(=O)C(Oc4ccccc4)C3c3cccc(OC)c3)cc2)nn1", "note": "(stereo not drawn)", "IC50": 850}, {"smiles": "C=CCn1cc(COc2ccc(N3C(=O)C(Oc4ccccc4)C3c3ccc([N+](=O)[O-])cc3)cc2)nn1", "note": "(stereo not drawn)", "IC50": 850}, {"smiles": "CCOC(=O)Cn1cc(COc2ccc(C3C(Oc4ccccc4)C(=O)N3c3ccc(OCc4cn(CC(=O)OCC)nn4)cc3)cc2)nn1", "note": "(stereo not drawn)", "IC50": 850}, {"smiles": "O=C1C(Oc2ccccc2)C(c2ccc([N+](=O)[O-])cc2)N1c1ccc(OCc2cn(Cc3ccccc3)nn2)cc1", "note": "(stereo not drawn)", "IC50": 850}, {"smiles": "COc1ccc(N2C(=O)C(Oc3ccccc3)C2c2ccc(OCc3cn(Cc4ccccc4)nn3)cc2)cc1OC", "note": "(stereo not drawn)", "IC50": 850}, {"smiles": "O=C1C(Oc2ccc(Cl)cc2Cl)C(c2ccc(OCc3cn(Cc4ccccc4)nn3)cc2)N1c1ccc(OCc2cn(Cc3ccccc3)nn2)cc1", "note": "(stereo not drawn)", "IC50": 970}, {"smiles": "C=CCn1cc(COc2ccc(N3C(=O)C(Oc4ccccc4)C3c3ccccc3)cc2)nn1", "note": "(stereo not drawn)", "IC50": 850}, {"smiles": "O=C1C(Oc2ccccc2)C(c2ccccc2Cl)N1c1ccc(OCc2cn(Cc3ccccc3)nn2)cc1", "note": "(stereo not drawn)", "IC50": 850}, {"smiles": "C=CCn1cc(COc2ccc(N3C(=O)C(Oc4ccccc4)C3c3ccc(C)cc3)cc2)nn1", "note": "(stereo not drawn)", "IC50": 850}, {"smiles": "CCOC(=O)Cn1cc(COc2ccc(C3C(Oc4ccc(Cl)cc4Cl)C(=O)N3c3ccc(OCc4cn(CC(=O)OCC)nn4)cc3)cc2)nn1", "note": "(stereo not drawn)", "IC50": 850}]}, {"system": "Plasmodium falciparum", "assay": "Antimalarial activity against Plasmodium falciparum 3D7 assessed as parasite growth inhibition incubated for 42 hrs by [3H]-hypoxanthine incorporation assay", "format": "functional, organism-based", "conditions": "not given", "units": {"IC50": "µg/mL"}, "values": [{"smiles": "COc1ccc2cc3[n+](cc2c1OCc1cn(-c2ccc(S(=O)(=O)N4CCN(C)CC4)cc2)nn1)CCc1cc2c(cc1-3)OCO2.[Cl-]", "IC50": 0.1}, {"smiles": "COc1ccc(NS(=O)(=O)c2ccc(-n3cc(COc4c(OC)ccc5cc6[n+](cc45)CCc4cc5c(cc4-6)OCO5)nn3)cc2)cc1.[Cl-]", "IC50": 0.5}, {"smiles": "COc1ccc2cc3[n+](cc2c1OCc1cn(-c2ccc(S(=O)(=O)Nc4ccccc4)cc2)nn1)CCc1cc2c(cc1-3)OCO2.[Cl-]", "IC50": 0.2}, {"smiles": "COc1ccc2cc3[n+](cc2c1OCc1cn(-c2ccc(S(=O)(=O)Nc4ccc(F)cc4)cc2)nn1)CCc1cc2c(cc1-3)OCO2.[Cl-]", "IC50": 0.1}, {"smiles": "COc1ccc2cc3[n+](cc2c1OCc1cn(-c2ccc(S(=O)(=O)Nc4ccc(Br)cc4)cc2)nn1)CCc1cc2c(cc1-3)OCO2.[Cl-]", "IC50": 0.1}, {"smiles": "COc1ccc2cc3[n+](cc2c1OCc1cn(-c2ccc(S(=O)(=O)N4CCN(S(=O)(=O)c5ccc(-n6cc(COc7c(OC)ccc8cc9[n+](cc78)CCc7cc8c(cc7-9)OCO8)nn6)cc5)CC4)cc2)nn1)CCc1cc2c(cc1-3)OCO2.[Cl-].[Cl-]", "IC50": 0.1}, {"smiles": "COc1ccc2cc3[n+](cc2c1OCc1cn(-c2ccc(S(=O)(=O)N4CCN(c5ccccn5)CC4)cc2)nn1)CCc1cc2c(cc1-3)OCO2.[Cl-]", "IC50": 0.1}, {"smiles": "COc1ccc2cc3[n+](cc2c1OCc1cn(-c2ccc(S(=O)(=O)Nc4nc(C)cc(C)n4)cc2)nn1)CCc1cc2c(cc1-3)OCO2.[Cl-]", "IC50": 0.1}, {"smiles": "COc1ccc2cc3[n+](cc2c1OCc1cn(-c2ccc(S(=O)(=O)N4CCCCC4)cc2)nn1)CCc1cc2c(cc1-3)OCO2.[Cl-]", "IC50": 0.1}, {"smiles": "COc1ccc2cc3[n+](cc2c1OCc1cn(-c2ccc(S(=O)(=O)Nc4ccc([N+](=O)[O-])cc4)cc2)nn1)CCc1cc2c(cc1-3)OCO2.Cl", "IC50": 0.1}, {"smiles": "COc1ccc2cc3[n+](cc2c1OCc1cn(-c2ccc(S(=O)(=O)N4CCOCC4)cc2)nn1)CCc1cc2c(cc1-3)OCO2.[Cl-]", "IC50": 0.1}]}, {"system": "not listed separately", "assay": "Cytotoxicity against human PC-3 cells incubated for 72 hrs by MTT assay", "format": "toxicity, cell-based", "conditions": "not given", "units": {"CC50 at 72 h": "µg/mL"}, "values": [{"smiles": "COc1ccc2cc3[n+](cc2c1OCc1cn(-c2ccc(S(=O)(=O)N4CCN(C)CC4)cc2)nn1)CCc1cc2c(cc1-3)OCO2.[Cl-]", "CC50 at 72 h": "> 200"}, {"smiles": "COc1ccc(NS(=O)(=O)c2ccc(-n3cc(COc4c(OC)ccc5cc6[n+](cc45)CCc4cc5c(cc4-6)OCO5)nn3)cc2)cc1.[Cl-]", "CC50 at 72 h": "> 200"}, {"smiles": "COc1ccc2cc3[n+](cc2c1OCc1cn(-c2ccc(S(=O)(=O)Nc4ccccc4)cc2)nn1)CCc1cc2c(cc1-3)OCO2.[Cl-]", "CC50 at 72 h": "> 200"}, {"smiles": "COc1ccc2cc3[n+](cc2c1OCc1cn(-c2ccc(S(=O)(=O)Nc4ccc(Cl)cc4)cc2)nn1)CCc1cc2c(cc1-3)OCO2", "CC50 at 72 h": "> 200"}, {"smiles": "COc1ccc2cc3[n+](cc2c1OCc1cn(-c2ccc(S(=O)(=O)Nc4ccc(F)cc4)cc2)nn1)CCc1cc2c(cc1-3)OCO2.[Cl-]", "CC50 at 72 h": "> 200"}, {"smiles": "COc1ccc2cc3[n+](cc2c1OCc1cn(-c2ccc(S(=O)(=O)Nc4ccc(Br)cc4)cc2)nn1)CCc1cc2c(cc1-3)OCO2.[Cl-]", "CC50 at 72 h": "> 200"}, {"smiles": "COc1ccc2cc3[n+](cc2c1OCc1cn(-c2ccc(S(=O)(=O)N4CCN(S(=O)(=O)c5ccc(-n6cc(COc7c(OC)ccc8cc9[n+](cc78)CCc7cc8c(cc7-9)OCO8)nn6)cc5)CC4)cc2)nn1)CCc1cc2c(cc1-3)OCO2.[Cl-].[Cl-]", "CC50 at 72 h": "> 200"}, {"smiles": "COc1ccc2cc3[n+](cc2c1OCc1cn(-c2ccc(S(=O)(=O)N4CCN(c5ccccn5)CC4)cc2)nn1)CCc1cc2c(cc1-3)OCO2.[Cl-]", "CC50 at 72 h": "> 200"}, {"smiles": "COc1ccc2cc3[n+](cc2c1OCc1cn(-c2ccc(S(=O)(=O)Nc4nc(C)cc(C)n4)cc2)nn1)CCc1cc2c(cc1-3)OCO2.[Cl-]", "CC50 at 72 h": "> 200"}, {"smiles": "COc1ccc2cc3[n+](cc2c1OCc1cn(-c2ccc(S(=O)(=O)N4CCCCC4)cc2)nn1)CCc1cc2c(cc1-3)OCO2.[Cl-]", "CC50 at 72 h": "> 200"}, {"smiles": "COc1ccc2cc3[n+](cc2c1OCc1cn(-c2ccc(S(=O)(=O)Nc4ccc([N+](=O)[O-])cc4)cc2)nn1)CCc1cc2c(cc1-3)OCO2.Cl", "CC50 at 72 h": "> 200"}, {"smiles": "COc1ccc2cc3[n+](cc2c1OCc1cn(-c2ccc(S(=O)(=O)N4CCOCC4)cc2)nn1)CCc1cc2c(cc1-3)OCO2.[Cl-]", "CC50 at 72 h": "> 200"}]}, {"system": "Plasmodium falciparum", "assay": "Antiplasmodial activity against Plasmodium falciparum 3D7 infected in human red blood cells assessed as parasite growth inhibition incubated for 72 hrs by SYBR Green I staining based analysis", "format": "functional, organism-based, Red blood cell", "conditions": "3D7, Erythrocyte", "units": {"IC50": "nM"}, "values": [{"smiles": "O=C(OCc1cnn(-c2ccccc2)n1)c1ccccc1", "IC50": 2800}, {"smiles": "CCOCc1cn(-c2cc(Cl)cc(Cl)c2)nn1", "IC50": 2800}, {"smiles": "O=C(N/N=C/c1cn(-c2ccc(Cl)cc2)nn1)c1ccncc1", "IC50": 2800}, {"smiles": "COc1ccc(-n2cc(/C=N/Nc3ccc(Cl)cc3)nn2)cc1", "IC50": 2800}, {"smiles": "Fc1ccc(N/N=C/c2cn(-c3ccc(Cl)cc3)nn2)cc1", "IC50": 8450}, {"smiles": "O=C(N/N=C/c1cn(-c2cc(Cl)cc(Cl)c2)nn1)c1ccncc1", "IC50": 6960}, {"smiles": "CCOCc1cn(-c2ccc(Cl)cc2)nn1", "IC50": 2800}, {"smiles": "CCCOCc1cn(-c2cc(Cl)cc(Cl)c2)nn1", "IC50": 2800}, {"smiles": "CCCOCc1cn(-c2cc(Cl)ccc2Cl)nn1", "IC50": 2800}, {"smiles": "CCCCOCc1cn(-c2cc(Cl)cc(Cl)c2)nn1", "IC50": 2800}, {"smiles": "CCOC(=O)c1cnn(-c2ccccc2)c1", "IC50": 2800}, {"smiles": "COc1ccc(-n2cc(/C=N/Nc3ccccc3)nn2)cc1", "IC50": 4440}, {"smiles": "COc1ccc(-n2cc(COC(=O)c3ccccc3)nn2)cc1", "IC50": 2800}, {"smiles": "Clc1ccc(Cl)c(-n2cc(/C=N/Nc3c(Cl)cccc3Cl)nn2)c1", "IC50": 2800}, {"smiles": "O=C(OCc1cn(-c2ccccc2)nn1)c1ccccc1", "IC50": 2800}, {"smiles": "CCCCCCCCCC(=O)OCc1cn(-c2cc(Cl)cc(Cl)c2)nn1", "IC50": 2800}, {"smiles": "O=C(N/N=C/c1cn(-c2ccccc2)nn1)c1ccncc1", "IC50": 2800}, {"smiles": "Fc1ccc(N/N=C/c2cnn(-c3ccccc3)n2)cc1", "IC50": 2800}, {"smiles": "Clc1ccc(N/N=C/c2cnn(-c3ccccc3)n2)cc1", "IC50": 2800}, {"smiles": "COc1ccc(-n2cc(/C=N/NC(=O)c3ccncc3)nn2)cc1", "IC50": 2800}, {"smiles": "Clc1ccc(N/N=C/c2cn(-c3ccc(Cl)cc3)nn2)cc1", "IC50": 2800}, {"smiles": "O=C(N/N=C/c1cnn(-c2ccccc2)n1)c1ccncc1", "IC50": 2800}, {"smiles": "C(=N\\Nc1ccccc1)/c1cnn(-c2ccccc2)n1", "IC50": 2800}, {"smiles": "O/N=C/c1cn(-c2cc(Cl)ccc2Cl)nn1", "IC50": 2800}, {"smiles": "Clc1cc(Cl)cc(-n2cc(/C=N/Nc3c(Cl)cccc3Cl)nn2)c1", "IC50": 5560}, {"smiles": "Clc1ccc(-n2cc(/C=N/Nc3c(Cl)cccc3Cl)nn2)cc1", "IC50": 2800}, {"smiles": "Cc1cccc(C)c1N/N=C/c1cn(-c2cc(Cl)cc(Cl)c2)nn1", "IC50": 2800}, {"smiles": "Clc1cc(Cl)cc(-n2cc(/C=N/Nc3ccc(Br)cc3)nn2)c1", "IC50": 2800}, {"smiles": "CCCCCCCCCC(=O)OCc1cn(-c2ccc(OC)cc2)nn1", "IC50": 2800}]}]}
